The values below come from PubChem BioAssay (NCI).

Test systems include CCRF-CEM leukemia; COLO 205 colon; DU-145 prostate; HCT-116 colon; HCT-15 colon; HOP-92 NSCLC; HS 578T breast; MOLT-4 leukemia; OVCAR-5 ovarian; SF-295 CNS; SK-MEL-5 melanoma; SW-620 colon; T-47D breast; U251 CNS.
Common to all, as to experiment: growth of human tumour cells (NCI), 48 h

SMILES strings stand for the structures.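 1) Cells in 96-well plates. 2) Compound, 48 h, 5 concentrations. 3) Linear interpolation between surrounding doses. 4) Unreached endpoint = highest concentration. The concentration for full growth arrest is given as TGI.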 *1 amine or outer side, *2 acyl side, *3 side chain or, on linkers, in order; H or OH if unused. Where a SMILES comes first, the peptide text is derived from it. Bridges are numbered along the chain shown (N, C = ends). [ ]: non-standard residue; d: D form. The star is where a group is joined. ξ: configuration not given here. X34 = O=C(C(CCCCNO[*:3])N[*:1])[*:2]; Fmoc = O=C(OCC1c2ccccc2-c2ccccc21)*; ξW = NC(Cc1c[nH]c2ccccc12)C(=O)O; ξP = O=C(O)C1CCCN1

For `NC(=O)CNC(=O)C1CCCN1C(=O)C1CCCCNOC(=O)CC[C@@H](NC(=O)OCC2c3ccccc3-c3ccccc32)C(=O)NC(Cc2c[nH]c3ccccc23)C(=O)N1` (some centres not stated) (Fmoc-[dE][ξW][X34][ξP]G-NH2; ester 1-3), the TGI in the experiment on CCRF-CEM leukemia, in the experiment on COLO 205 colon, in the experiment on DU-145 prostate, with HCT-116 colon, in the experiment on HCT-15 colon and in the experiment on HOP-92 NSCLC was over 100 µM each time. For the same compound, the TGI with HS 578T breast, in the experiment on MOLT-4 leukemia, in the experiment on OVCAR-5 ovarian, in the experiment on SF-295 CNS, in the experiment on SK-MEL-5 melanoma and with SW-620 colon was over 100 µM each time. Also, the TGI with T-47D breast and in the experiment on U251 CNS was over 100 µM each time.

Consider `CSc1nc(Cl)c2c(n1)Sc1nc3cc4c(cc3n1C2O)OCCO4` (configuration not stated), for which the TGI with CCRF-CEM leukemia was found to be 3.76 µM; in the experiment on COLO 205 colon it was 0.142 µM; in the experiment on DU-145 prostate, 15.9 µM; in the experiment on HCT-116 colon it was 26.6 µM; in the experiment on HCT-15 colon, 11.1 µM; in the experiment on HOP-92 NSCLC, 4.41 µM. The TGI amounted to 23.6 µM in the experiment with HS 578T breast; 16.7 µM in the experiment on MOLT-4 leukemia; 36 µM in the experiment with OVCAR-5 ovarian; 38.5 µM in the experiment on SF-295 CNS; 25.2 µM in the experiment on SW-620 colon; 65.3 µM in the experiment on T-47D breast. The TGI in the experiment with U251 CNS worked out at 14.3 µM.

Take `O=C1C(Cl)=C(N2CCN(C3=C(Cl)C(=O)c4ccccc4C3=O)CC2)C(=O)c2ccccc21`: the TGI in the experiment with CCRF-CEM leukemia turned out to be 0.718 µM; in the experiment on COLO 205 colon, 3.1 µM; in the experiment on DU-145 prostate it was 14.4 µM; in the experiment on HCT-116 colon it was 2.76 µM; with HCT-15 colon it was 3.07 µM; with HOP-92 NSCLC, 2.4 µM. Further, the TGI with HS 578T breast worked out at 7.12 µM; with MOLT-4 leukemia it was 1.69 µM; with OVCAR-5 ovarian, 12.7 µM; with SF-295 CNS, 21.5 µM; in the experiment with SK-MEL-5 melanoma, 3.25 µM; in the experiment on SW-620 colon, 2.68 µM. Besides, the TGI worked out at 2.06 µM in the experiment on T-47D breast and 6.19 µM with U251 CNS.

Turning to `Cc1nc2c(sc(=S)n2-c2ccccc2)c2nc3ncccc3n12`, the TGI in the experiment with CCRF-CEM leukemia, in the experiment with COLO 205 colon, in the experiment on DU-145 prostate, with HCT-116 colon, with HCT-15 colon and with HOP-92 NSCLC was over 100 µM in each case. Further, the TGI in the experiment with HS 578T breast, in the experiment on MOLT-4 leukemia, in the experiment with OVCAR-5 ovarian, with SF-295 CNS, in the experiment with SK-MEL-5 melanoma and with SW-620 colon was over 100 µM each time. Besides, the TGI with T-47D breast and in the experiment on U251 CNS was over 100 µM throughout.

For `CCN(CC)CCc1c2c(nc3ccccc13)C(=O)c1cccnc1C2=O`, the TGI in the experiment with CCRF-CEM leukemia was found to be 5.72 µM; with COLO 205 colon it was 3.07 µM; in the experiment on DU-145 prostate, 1.84 µM; in the experiment on HCT-116 colon it was 3.53 µM; in the experiment with HCT-15 colon, 1.29 µM; with HOP-92 NSCLC it was 40.1 µM. The TGI was over 100 µM in the experiment on HS 578T breast; 25.4 µM in the experiment with OVCAR-5 ovarian; 5.41 µM in the experiment with SF-295 CNS; 1.34 µM in the experiment with SK-MEL-5 melanoma; 12.7 µM with SW-620 colon; 5.31 µM with T-47D breast. The TGI with U251 CNS was 20 µM.

Take `COc1cc2c(cc1OC)C1=Cc3cc(OC)c(OC)cc3C(C)N1C=C2` (configuration not stated): the TGI in the experiment with CCRF-CEM leukemia, in the experiment with COLO 205 colon, in the experiment with DU-145 prostate, with HCT-116 colon, with HCT-15 colon and in the experiment with HOP-92 NSCLC was over 100 µM each time. For the same compound, the TGI in the experiment on HS 578T breast, in the experiment with MOLT-4 leukemia, with OVCAR-5 ovarian, with SF-295 CNS, with SK-MEL-5 melanoma and with SW-620 colon was over 100 µM in each case. In addition, the TGI in the experiment with T-47D breast and with U251 CNS was over 100 µM throughout.

Regarding `COc1cccc(-c2cc(=O)c3ccccc3o2)c1N`, the TGI in the experiment with CCRF-CEM leukemia, with COLO 205 colon, in the experiment with DU-145 prostate, in the experiment on HCT-116 colon, with HCT-15 colon and with HOP-92 NSCLC was over 100 µM each time. Besides, the TGI in the experiment with HS 578T breast, in the experiment on MOLT-4 leukemia, in the experiment with OVCAR-5 ovarian, with SF-295 CNS, in the experiment on SK-MEL-5 melanoma and in the experiment with SW-620 colon was over 100 µM throughout. Also, the TGI with T-47D breast is over 57.3 µM; in the experiment with U251 CNS it was over 100 µM.

With `CCOc1cc(NC(C)=O)ccc1C(=O)NNC(=O)c1ccccc1OC(C)=O`, the TGI was over 100 µM in the experiment with CCRF-CEM leukemia; over 77.9 µM with COLO 205 colon; over 67.7 µM in the experiment with DU-145 prostate; over 36.8 µM with HCT-116 colon; over 100 µM in the experiment with HCT-15 colon; over 100 µM in the experiment with HOP-92 NSCLC. In addition, the TGI in the experiment with HS 578T breast was over 100 µM; in the experiment on MOLT-4 leukemia, over 40.5 µM; with OVCAR-5 ovarian, over 89.4 µM; in the experiment on SF-295 CNS, over 100 µM; in the experiment on SK-MEL-5 melanoma, 22.6 µM; with SW-620 colon, over 100 µM. For the same compound, the figures for the TGI with T-47D breast and in the experiment with U251 CNS were over 46.4 µM and over 100 µM, respectively.

For the compound `OCC1CCCCCCCCCCC12SCCCS2` (configuration not stated), the TGI with CCRF-CEM leukemia, in the experiment with COLO 205 colon, in the experiment with DU-145 prostate, with HCT-116 colon, in the experiment on HCT-15 colon and in the experiment on HOP-92 NSCLC was over 100 µM throughout. In addition, the TGI in the experiment with HS 578T breast, in the experiment with MOLT-4 leukemia, in the experiment on OVCAR-5 ovarian, with SK-MEL-5 melanoma, with SW-620 colon and in the experiment on T-47D breast was over 100 µM in each case. In the experiment on U251 CNS, this compound yielded a TGI of over 100 µM.

In the case of `CC(=O)OCC(C)C1=C(O)C(=O)C2(C)C/C=C(/C)CC/C=C(\C)CCC(O)C(C)CCC12` (configuration not stated), the TGI in the experiment with CCRF-CEM leukemia worked out at 70.9 µM; in the experiment on COLO 205 colon it was 31.1 µM; in the experiment on DU-145 prostate, 31.7 µM; in the experiment on HCT-116 colon, 32.8 µM; with HCT-15 colon, 36.2 µM; in the experiment with HOP-92 NSCLC, 33.7 µM. Also, the TGI is 52.9 µM in the experiment with HS 578T breast; 28.6 µM with MOLT-4 leukemia; 31.6 µM in the experiment with OVCAR-5 ovarian; 29.9 µM with SF-295 CNS; 32.1 µM with SK-MEL-5 melanoma; 37.8 µM in the experiment with SW-620 colon. Also, the TGI came out at 14.9 µM in the experiment on T-47D breast and 30.8 µM in the experiment with U251 CNS.
